Assays:
[1] = test system: Foxp3+GFP+ and Foxp3-GFP- T cells; assay: Foxp3 expression (GFP reporter) and IL-6 production in Foxp3+ and Foxp3- T cells under stimulation; assay type: cell-based, mouse
Method: In order to study the effect of stimulation conditions on Foxp3 expression, T cells were from mice having a reporter construct introduced into the FOXP3 locus (Betteli et al., 2006, Nature 441:235-238) by sorting cells based on the GFP-reporter construct. The reporter construct expresses both Fox3p and the fluorescent protein GFP. T cells that are Foxp3^− (i.e. GFP^−) and T cells that are Foxp3^+ (i.e. GFP^+) were isolated (FIG. 21A). Foxp3 expression was then assessed under different stimulation conditions, […]

CD4+ T cells = assay: TLR ligation at the time of T cell stimulation: proliferation, IL-2 production and signaling; assay type: cell-based, mouse
Method: The present experiments were designed to assess the effects of TLR ligation at the time of T cell stimulation, and analysis of signaling pathways which mediate them.
Similar results were observed when anti-CD28 was used in combination with anti-CD3 (FIGS. 7B-7D). IL-2 production from treat T cells were also measured (FIG. 8). These effects were additive to those of anti-CD28 stimulation.
This led to the examination of other signaling pathways downstream of TLR9. For example, experiments were designed to assess the role of phosphatidyl inositol 3 kinase (PI3K) in TLR9 activation because of the ability of TLR ligation to synergize with TCR stimulation for IL-2 production and proliferation was reminiscent of CD28 functions. PI3K is a lipid kinase which catalyzes the phosphorylation of phosphatidyl inositol bis 4, 5, phosphate (PIP2) into phosphatidyl inositol tris 3, 4, 5, phosphate (PIP3). PIP3 is an important cell signaling molecule, activating protein kinase B/Akt, and other downstream pathways. In T cells, PI3K activation is a major known downstream signaling pathway of the T cell costimulatory receptor CD28.

poly(I:C)
Foxp3 expression in Foxp3+GFP+ cells (natural Tregs) ([1]; activated by anti-CD3 plus TLR ligand (FIG. 21B)): maintained Foxp3 expression
Foxp3 expression in Foxp3-GFP- cells (non-regulatory T cells) ([1]; stimulation with anti-CD3 and anti-CD28 antibodies and TGF-b, with additions (FIG. 22)): augmented
IL-2 protein production with T cell stimulation (CD4+ T cells; FIG. 8): able to synergize
TRAF6 requirement of proliferative effects (CD4+ T cells; FIG. 9): did not require TRAF6
T cell proliferation with T cell stimulation (CD4+ T cells; with sub-mitogenic anti-CD3, with or without anti-CD28 (FIG. 7)): able to synergize

— US20090220528A1, “Stimulation of Toll-Like Receptors on T Cells” (THE TRUSTEES OF THE UNIVERISTY OF PENNSYLVANIA CNETER FOR …, priority 2005, published 2009)
